Consider 1 molecule from PMC3841297 (Chemical biology & drug design, 2013).

Structures are written as SMILES.

The test has as its target SrtA (SrtAΔN59, residue 60–206) (Staphylococcus aureus, UniProt Q2FV99). The test is described as follows: SrtA enzymatic inhibition, FRET assay. Type of test: biochemical.

With `O=C(O)COc1ccccc1C1Nc2cccc3cccc(c23)N1` [Compound 1, (2-(2,3-dihydro-1H-perimidin-2-yl)-phenoxy)-acetic acid], the IC50 (in general, the point on the concentration scale where inhibition reaches its midpoint) amounted to 47.2 ± 5.9 µM.
